Assay results from ChEMBL document CHEMBL1201862, “PubChem BioAssay data set” (2004).
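Five concentrations, 48 hours, 96-well plates. GI50 is the concentration that inhibits growth by half.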 Active and inactive are the calls of the source. No stated cut-off is given here; in the data, active = GI50 up to about 1.1 µM and inactive = higher.

Key:
Test in all cases: NCI anticancer screen, dose series, 48 h
UACC-257 = system: UACC-257
HCC 2998 = system: HCC 2998
IGROV-1 = system: IGROV-1
NCI/ADR-RES = system: NCI/ADR-RES
OVCAR-3 = system: OVCAR-3
CAKI-1 = system: CAKI-1
M14 = system: M14
ACHN = system: ACHN
HOP-62 = system: HOP-62
HT-29 = system: HT-29
SN12C = system: SN12C
SR = system: SR
A498 = system: A498
COLO 205 = system: COLO 205
HCT-116 = system: HCT-116
CCRF-CEM = system: CCRF-CEM
HOP-92 = system: HOP-92
SF-539 = system: SF-539
PC-3 = system: PC-3
RPMI-8226 = system: RPMI-8226

| Structure (SMILES) | GI50 (UACC-257) | GI50 (HCC 2998) | GI50 (IGROV-1) | GI50 (NCI/ADR-RES) | GI50 (OVCAR-3) | GI50 (CAKI-1) | GI50 (M14) | GI50 (ACHN) | GI50 (HOP-62) | GI50 (HT-29) | GI50 (SN12C) | GI50 (SR) | GI50 (A498) | GI50 (COLO 205) | GI50 (HCT-116) | GI50 (CCRF-CEM) | GI50 (HOP-92) | GI50 (SF-539) | GI50 (PC-3) | GI50 (RPMI-8226) |
| --- | --- | --- | --- | --- | --- | --- | --- | --- | --- | --- | --- | --- | --- | --- | --- | --- | --- | --- | --- | --- |
| COc1ccc(C(=O)/C=C/c2ccc(O)c(O)c2)c(OC)c1 | 3.87 µM (inactive) | 1.21 µM (inactive) | 0.887 µM (active) | 2.75 µM (inactive) | 0.242 µM (active) | 6.27 µM (inactive) | 3.99 µM (inactive) | 10.9 µM (inactive) | 4.32 µM (inactive) | 7.76 µM (inactive) | 1.22 µM (inactive) | 0.337 µM (active) | 4.5 µM (inactive) | 15.1 µM (inactive) | 0.638 µM (active) | 0.508 µM (active) | 28.8 µM (inactive) | 0.834 µM (active) | 4.8 µM (inactive) | 0.7 µM (active) |
| O=C1/C(=C/c2ccc(O)cc2)CCc2ccccc21 | 17.3 µM (inactive) | 22 µM (inactive) | 26.9 µM (inactive) | 12.7 µM (inactive) | 23.3 µM (inactive) | 31.3 µM (inactive) | 20.2 µM (inactive) | 21.1 µM (inactive) | 22.9 µM (inactive) | 21.5 µM (inactive) | 18.3 µM (inactive) | 5.45 µM (inactive) | 24.7 µM (inactive) | 22 µM (inactive) | 16.1 µM (inactive) | 1.7 µM (inactive) | 36.2 µM (inactive) | 18 µM (inactive) | 16.8 µM (inactive) | 6.5 µM (inactive) |
| COc1cc(/C=C/C(=O)C2(C(=O)/C=C/c3cc(OC)c(OC)c(OC)c3)CCCCC2)cc(OC)c1OC | 76.9 µM (inactive) | 58.6 µM (inactive) | 27.4 µM (inactive) | 32.1 µM (inactive) | 23.3 µM (inactive) | 49.4 µM (inactive) | 29.9 µM (inactive) | 62.1 µM (inactive) | 55.6 µM (inactive) | 35.7 µM (inactive) | 35.2 µM (inactive) | 19.4 µM (inactive) | > 100 µM (inactive) | 78.9 µM (inactive) | 31.1 µM (inactive) | 34.3 µM (inactive) | 1.22 µM (inactive) | 19 µM (inactive) | 27.2 µM (inactive) | 18.3 µM (inactive) |
| CCOc1cc(NC(C)=O)ccc1C(=O)NN1C(=O)CSC1c1ccc(O)c(OC)c1 (stereo not given) | 48.4 µM (inactive) | 32.1 µM (inactive) | 60.4 µM (inactive) | 30.8 µM (inactive) | 58.7 µM (inactive) | 44.4 µM (inactive) | 50.4 µM (inactive) | 51.4 µM (inactive) | > 100 µM (inactive) | 73.6 µM (inactive) | > 100 µM (inactive) | 50.9 µM (inactive) | > 100 µM (inactive) | 33.1 µM (inactive) | 60.1 µM (inactive) | 40.8 µM (inactive) | 59.7 µM (inactive) | > 100 µM (inactive) | 44 µM (inactive) | 40.4 µM (inactive) |
| Cc1ccc(O)c(C(c2ccc(C(c3cc(C)ccc3O)c3cc(C)ccc3O)cc2)c2cc(C)ccc2O)c1 | 1.85 µM (inactive) | 1.8 µM (inactive) | 1.67 µM (inactive) | 1.88 µM (inactive) | 1.74 µM (inactive) | 1.56 µM (inactive) | 1.8 µM (inactive) | 1.78 µM (inactive) | 1.92 µM (inactive) | 1.87 µM (inactive) | 1.65 µM (inactive) | 2.62 µM (inactive) | 1.56 µM (inactive) | 1.33 µM (inactive) | 1.67 µM (inactive) | 2.28 µM (inactive) | 2.32 µM (inactive) | 1.75 µM (inactive) | 1.59 µM (inactive) | 1.56 µM (inactive) |
| CC1CC[C@@]2(OC1)OC1C[C@H]3[C@@H]4CC[C@H]5CC(OC6OC(CO)C(O)C(OC7OC(CO)C(OC8OC(CO)C(O)C(OC9OC(CO)C(O)C(O)C9O)C8OC8OC(CO)C(O)C(O)C8O)C(O)C7O)C6O)[C@H](O)CC5(C)[C@H]4CCC3(C)C1[C@@H]2C (stereo not given in full) | 8.75 µM (inactive) | 1.43 µM (inactive) | 1.44 µM (inactive) | 4.72 µM (inactive) | 0.9 µM (active) | 4.11 µM (inactive) | 9.04 µM (inactive) | 1.9 µM (inactive) | 2.28 µM (inactive) | 3.52 µM (inactive) | 2.49 µM (inactive) | 1.11 µM (active) | 1.06 µM (active) | 1.95 µM (inactive) | 5.14 µM (inactive) | 2.08 µM (inactive) | 4.88 µM (inactive) | 1.87 µM (inactive) | 1.29 µM (inactive) | 2.55 µM (inactive) |
| CCOC(=O)COc1ccc2c(C)cc(=O)oc2c1 | > 100 µM (inactive) | 34.4 µM (inactive) | > 100 µM (inactive) | > 100 µM (inactive) | > 100 µM (inactive) | > 100 µM (inactive) | > 100 µM (inactive) | > 100 µM (inactive) | > 100 µM (inactive) | > 100 µM (inactive) | > 100 µM (inactive) | > 100 µM (inactive) | > 100 µM (inactive) | > 100 µM (inactive) | > 100 µM (inactive) | > 100 µM (inactive) | > 100 µM (inactive) | > 100 µM (inactive) | > 100 µM (inactive) | > 100 µM (inactive) |
| C(=N\Nc1ccc(-c2nc3ccccc3[nH]2)cc1)/c1c(-c2ccc(Cc3ccccc3)cc2)[nH]c2ccccc12 | 13.5 µM (inactive) | 3.83 µM (inactive) | 4.41 µM (inactive) | 5.31 µM (inactive) | 9.44 µM (inactive) | 14.3 µM (inactive) | 4.48 µM (inactive) | 11 µM (inactive) | 19.6 µM (inactive) | 3.67 µM (inactive) | 18.6 µM (inactive) | 2.15 µM (inactive) | 11.4 µM (inactive) | 3.94 µM (inactive) | 5.01 µM (inactive) | 5.06 µM (inactive) | 4.09 µM (inactive) | 5.74 µM (inactive) | 4.86 µM (inactive) | 3.08 µM (inactive) |
| COC(OC)[C@@H]1OC[C@H](n2cnc3c(N)ncnc32)[C@H]1O | > 100 µM (inactive) | > 100 µM (inactive) | > 100 µM (inactive) | > 100 µM (inactive) | > 100 µM (inactive) | > 100 µM (inactive) | > 100 µM (inactive) | > 100 µM (inactive) | > 100 µM (inactive) | > 100 µM (inactive) | > 100 µM (inactive) | > 100 µM (inactive) | > 100 µM (inactive) | > 100 µM (inactive) | > 100 µM (inactive) | > 100 µM (inactive) | > 100 µM (inactive) | > 100 µM (inactive) | > 100 µM (inactive) | > 100 µM (inactive) |
| COC(=O)c1cc(C#N)[nH]c1-c1ccc(Br)s1 | 9.4 µM (inactive) | 17.9 µM (inactive) | 7.21 µM (inactive) | 10.3 µM (inactive) | 3.58 µM (inactive) | 19.2 µM (inactive) | 9.73 µM (inactive) | 13.7 µM (inactive) | 8.39 µM (inactive) | 12.4 µM (inactive) | 13.1 µM (inactive) | 16.8 µM (inactive) | 1.03 µM (active) | 14.1 µM (inactive) | 13.5 µM (inactive) | 21.1 µM (inactive) | 4.1 µM (inactive) | 12.8 µM (inactive) | 1.75 µM (inactive) | 5.08 µM (inactive) |
| CCSC1=CC2(O)N(CCc3ccc(OC)c(OC)c3)C(=O)CC2(C(=O)OC)CC1=O (stereo not given) | 17.9 µM (inactive) | 18.5 µM (inactive) | 18.2 µM (inactive) | 65.9 µM (inactive) | 18.2 µM (inactive) | 70.5 µM (inactive) | 25.8 µM (inactive) | 29.9 µM (inactive) | 18.2 µM (inactive) | 18.6 µM (inactive) | 19.6 µM (inactive) | 19.6 µM (inactive) | > 100 µM (inactive) | 77.6 µM (inactive) | 17.9 µM (inactive) | 34 µM (inactive) | 14.6 µM (inactive) | 26.3 µM (inactive) | 18.7 µM (inactive) | 29.4 µM (inactive) |
| CC(C)OC(=O)c1ccc(CCC2=CC(=O)C(Br)=CC2=O)cc1 | 13.2 µM (inactive) | 16.9 µM (inactive) | 14.4 µM (inactive) | 14.5 µM (inactive) | 14.8 µM (inactive) | 20.6 µM (inactive) | 16.4 µM (inactive) | 14.5 µM (inactive) | 29.6 µM (inactive) | 16.8 µM (inactive) | 16.9 µM (inactive) | 3.82 µM (inactive) | 35.9 µM (inactive) | 11.9 µM (inactive) | 16.7 µM (inactive) | 0.783 µM (active) | 12.4 µM (inactive) | 19.2 µM (inactive) | 17 µM (inactive) | 7.26 µM (inactive) |
| CCc1nc(N)nc(N)c1-c1ccc(NCCc2ccccc2)c([N+](=O)[O-])c1 | 1.77 µM (inactive) | 0.745 µM (active) | 0.394 µM (active) | 0.716 µM (active) | 1.44 µM (inactive) | 0.39 µM (active) | 0.276 µM (active) | 0.353 µM (active) | 1.64 µM (inactive) | 0.195 µM (active) | 1.34 µM (inactive) | 0.215 µM (active) | 3.05 µM (inactive) | 1.11 µM (active) | 0.0649 µM (active) | 0.297 µM (active) | 2.21 µM (inactive) | 0.741 µM (active) | 0.272 µM (active) | 1.11 µM (active) |
